{"source": "patent US12037433B2", "about": "“(Co)polymers of hydrophobic monomers and methods of making and use thereof” (BASF SE, priority 2018, dated 2024)", "origin": "cited, not measured here", "key": {"[1]": {"settings": "for solubility in water, measured at 20° C.: additional hydrophobic monomers"}}}
{"smiles": "C=C(C)C(=O)OC1CCCCC1", "note": "[Cyclohexyl methacrylate (CHMA), Cyclohexyl methacrylate]", "values": [{"measurement": "Water Solubility at 20° C.", "setting": "[1]", "result": 100, "unit": "µg/mL"}, {"measurement": "Partitioning Coefficient n-octanol/water [log Kow at 25° C.]", "result": 3.54}]}
{"smiles": "C=CC(=O)OCCCCCCCCCCCCCCCCC", "note": "[Heptadecyl acrylate (C17 A), Heptadecyl acrylate]", "values": [{"measurement": "Water Solubility at 20° C.", "setting": "[1]", "result": 40, "unit": "µg/mL"}, {"measurement": "Partitioning Coefficient n-octanol/water [log Kow at 25° C.]", "result": 9.2}]}
{"smiles": "C=C(C)C(=O)OCCCCCCCCCCCCCCCCC", "note": "[Heptadecyl methacrylate (C17 MA), Heptadecyl methacrylate]", "values": [{"measurement": "Water Solubility at 20° C.", "setting": "[1]", "result": 50, "unit": "µg/mL"}, {"measurement": "Partitioning Coefficient n-octanol/water [log Kow at 25° C.]", "result": 6.5}]}
{"smiles": "C=CC(=O)OCCCCCCCCCCCC", "note": "[Lauryl Acrylate (LA), Lauryl Acrylate]", "values": [{"measurement": "Water Solubility at 20° C.", "setting": "[1]", "result": 40, "unit": "µg/mL"}, {"measurement": "Partitioning Coefficient n-octanol/water [log Kow at 25° C.]", "result": 6.13}]}
{"smiles": "C=C(C)C(=O)OCCCCCCCCCCCC", "note": "[Lauryl Methacrylate (LMA), Lauryl Methacrylate]", "values": [{"measurement": "Water Solubility at 20° C.", "setting": "[1]", "result": 30, "unit": "µg/mL"}, {"measurement": "Partitioning Coefficient n-octanol/water [log Kow at 25° C.]", "result": 6.45}]}
{"smiles": "C=CC(=O)OCCCCCCCCCCCCCCCCCC", "note": "[Stearyl Acrylate (SA), Stearyl Acrylate]", "values": [{"measurement": "Partitioning Coefficient n-octanol/water [log Kow at 25° C.]", "result": 9.28}]}
{"smiles": "C=C(C)C(=O)OCCCCCCCCCCCCCCCCCC", "note": "[Stearyl Methacrylate (SMA), Stearyl Methacrylate]", "values": [{"measurement": "Partitioning Coefficient n-octanol/water [log Kow at 25° C.]", "result": 9.62}]}
{"smiles": "C=CC=C", "note": "[butadiene]", "values": [{"measurement": "solubility in water, measured at 20° C.", "setting": "[1]", "result": 0.08, "unit": "g/100 g water"}]}
{"smiles": "C=Cc1ccccc1", "note": "[styrene]", "values": [{"measurement": "solubility in water, measured at 20° C.", "setting": "[1]", "result": 0.03, "unit": "g/100 g water"}]}
{"smiles": "C=COC(=O)C(C)(C)C", "note": "[vinyl neo-pentanoate]", "values": [{"measurement": "solubility in water, measured at 20° C.", "setting": "[1]", "result": 0.08, "unit": "g/100 g water"}]}
